Data published in patent US10969396B2, “In vitro method, use of an agent and collection device for the inhibition of coagulation in blood” (priority 2013, dated 2021).
Structures can show the parent of a compound that is named as a salt.

Tested on: activated partial thromboplastin time (APTT)
Test: activated partial thromboplastin time (APTT) determination
Design: species or system human
Conditions: Example 1, plasma, N 48
Experimental: Tetrahydrofuran-2,3,4,5-tetracarboxylic acid (THTCA) was from TCI, Germany. Pristine blood collection tubes, i.e. tubes as originally provided not containing or respectively not filled or coated with additive, were from KABE Labortechnik GmbH, Germany, denoted KABEVETTE (GR).
Blood was collected from the antecubital vein from volunteers who had previously given their informed consent. […] Tubes were filled with blood completely to the mark (4.9 mL), and for tubes containing anticoagulant the blood was mixed well with the respective anticoagulant by inverting the tubes 4 times immediately after blood collection. Serum samples were treated according to the protocol of the manufacturer and used for biochemical analysis. […] Potassium EDTA plasma was also used for biochemical determinations.
The analyses of metabolites, minerals, and enzymes were performed using the automated analyzers cobas 6000 C and 6000 E. Haemostasis tests and haematologic parameters were measured by STA-R (Diagnostica Stago) analyzer and LH 780 analyzer (Beckman Coulter) respectively.

SMILES	APTT Mean (listed as GR 15, monohydrate) [s]	APTT Mean [s]
O=C(O)CC(O)(CC(=O)O)C(=O)O [CA, Citric acid monohydrate]	29.94	
O=C(O)CC(O)(CC(=O)O)C(=O)O [citrate (BD), sodium citrate]		29.71
